According to US11464795B2, “Saponin compound targeting PD-1 and application thereof” (EAST CHINA UNIVERSITY OF SCIENCE AND TECHNOLOGY, priority 2017, dated 2022):

Key:
[1] = target: T1, human PD-1 binding to human PD-L1 (Homo sapiens, UniProt Q15116); experiment: SPR competition of compounds with PD-L1 protein for binding PD-1; details: PD-L1 on CM5 chip, compound pre-incubated with 3 μM PD-1 protein
T1 construct: amino acids 34-150 of human PD-1; made in house; PD-L1: purchased from Beijing Yiqiao Shenzhou Biotechnology Co., Ltd., no catalogue number
T1 sequence (Q15116 34-150): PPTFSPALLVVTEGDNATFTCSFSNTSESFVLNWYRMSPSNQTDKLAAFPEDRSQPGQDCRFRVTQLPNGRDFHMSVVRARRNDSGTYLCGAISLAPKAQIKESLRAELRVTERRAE
Procedure: Based on the results in the above examples, the present inventors investigated whether the compound can competite with PD-L1 for binding PD-1, and thus block PD-1 from binding PD-L1. PD-L1 protein was purchased from Beijing Yiqiao Shenzhou Biotechnology Co., Ltd. Specific experimental steps are as follows: 50 μg/ml PD-L1 protein was coupled to CM5 chip by amino coupling method. The coupling amount was about 3780 RU. Compounds of different concentrations were incubated with 3 μM PD-1 protein on ice for 30 min, and flowed across the surface of the chip along with the running buffer (1.05×PBS, 0.05% P20, 1% DMSO) at a flow rate of 30 μL/min, for binding time of 90 s and dissociation time of 120 s. PD-1 protein bound to PD-L1 protein on the chip decreases as the concentration of the compound increases, therefore, the response value decreases. The results of this experiment indicate that compounds can block PD-1 from binding PD-L1.

[2] = target: T2, recombinant human PD-1 protein (Homo sapiens, UniProt Q15116); experiment: SPR determination of binding constants between saponin natural products and PD-1 protein; details: PD-1 coupled to CM7 chip, steady-state fitting, read-out: Binding affinity KD
T2 construct: amino acids 34-150 of human PD-1; made in house; host or cells: E. coli BL21 (DE3), pET-28a
T2 sequence (Q15116 34-150): as above
Procedure: Surface plasmon resonance (SPR) was used to determine the binding affinity between natural products and PD-1 protein. Specific experimental steps are as follows: Firstly, the purified protein was exchanged into 50 mM Hepes, pH 8.0, 250 mM NaCl, 1 mM DTT buffer, and diluted to 50 μg/ml with sodium acetate pH 4.5. The protein was coupled to CM7 chip with a coupling kit for 600 s at a flow rate of 10 μl/min. The final coupling amount was about 13000 RU. After the coupling was completed, the CM7 chip was equilibrated to a stable state in a buffer solution (1.05×PBS, 0.05% P20). […] The final data was analyzed by BIAevaluation2.0 software, and KD values were obtained by steady-state fitting.

[3] = tested on: Jurkat T cells; experiment: Detection of IL-2 secretion in T cells by ELISA (BxPC-3 / Jurkat T co-culture); type: cell-based; details: for Increase of the amount of IL-2 produced by Jurkat T cells: 50 μM compound, BxPC-3 tumor cells and Jurkat T cells co-cultured 3:1, 48 h, ELISA; for Restoration of the ability of depleted Jurkat T cells to secrete IL-2: FIG. 5 legend, result in words
Procedure: The inventors selected several compounds for the evaluation experiment of cell function. We co-cultured stimulated BxPC-3 tumor cells and activated Jurkat T cells in a 96-well plate at a ratio of 3:1. Jurkat T cells were cultured alone as a negative control. 50 μM of compound was added into the experimental group, and a D-hank's solution with the same DMSO content was used as a negative control. Each group was incubated in a carbon dioxide cell incubator for 48 h. The supernatant medium was collected and detected for the amount of IL-2 by an ELISA kit. Experiments were performed in triplicate. After tumor cells were co-cultured with T cells, the amount of IL-2 produced by the T cells was suppressed by about 55%. After 50 μM of compound 6 was added, the amount of IL-2 produced by Jurkat T cells can be increased by about 30%; after 50 μM of compound 8 was added, the amount of IL-2 produced by Jurkat T cells can be increased by about 1^7%; after 50 μM of compound 10 was added, the amount of IL-2 produced by Jurkat T cells can be increased by about 30%; after 50 μM of compound 11 was added, the amount of IL-2 produced by Jurkat T cells can be increased by about 12%; and after 50 μM of compound 13 was added, the amount of IL-2 produced by Jurkat T cells can be increased by about 23%. Such effects can be achieved in three repeated experiments. The results of this experiment indicate that the compounds can, to a certain extent, restore the function of T cells.

Row | SMILES | Kd [2] [nM] | Blocking of human PD-1 binding to human PD-L1 [1] | Increase of the amount of IL-2 produced by Jurkat T cells [3] | Restoration of the ability of depleted Jurkat T cells to secrete IL-2 [3]
1 | CC1(C)CCC2(C(=O)O)CC[C@]3(C)C(=CCC4[C@@]5(C)C[C@@H](O)[C@H](O)C(C)(C)C5CC[C@]43C)C2C1 (stereo partly drawn) [Compound 12] | – | can block human PD-1 from binding to human PD-L1 | – | –
2 | C[C@@H]1CC[C@@]2(C(=O)O)CC[C@]3(C)C(=CCC4[C@@]5(C)C[C@@H](O)[C@H](O)C(C)(C)C5CC[C@]43C)C2[C@H]1C (stereo partly drawn) [Compound 8] | 5020 | can block human PD-1 from binding to human PD-L1 | – | can restore the ability of depleted Jurkat T cells to secrete IL-2
3 | CC1(C)CC[C@]2(C(=O)O[C@@H]3O[C@H](CO)[C@@H](O)[C@H](O)[C@H]3O)CC[C@]3(C)C(=CC[C@@H]4[C@@]5(C)CC[C@H](OC6O[C@H](C(=O)O)[C@@H](O)[C@H](O)[C@H]6OC6O[C@H](CO)[C@@H](O)[C@H](O)[C@H]6O)C(C)(C)[C@@H]5CC[C@]43C)[C@@H]2C1 (stereo partly drawn) [Compound 1] | 2230 | can block human PD-1 from binding to human PD-L1 | – | –
4 | C[C@@H]1CC[C@]2(C(=O)O)CC[C@]3(C)C(=CCC4[C@@]5(C)CC[C@H](O)C(C)(C)C5CC[C@]43C)C2[C@H]1C (stereo partly drawn) [Compound 9] | 4920 | can block human PD-1 from binding to human PD-L1 | – | –
5 | C[C@@H]1O[C@@H](O[C@H]2[C@H](O[C@H]3[C@H](O[C@H]4CC[C@@]5(C)[C@@H](CC[C@]6(C)[C@@H]5CC=C5[C@@H]7CC(C)(C)C[C@@H](O)[C@]7(C)CC[C@]56C)[C@@]4(C)CO)O[C@H](C(=O)O)[C@@H](O)[C@@H]3O)O[C@H](CO)[C@H](O)[C@@H]2O)[C@H](O)[C@H](O)[C@H]1O [Compound 7] | 2190 | can block human PD-1 from binding to human PD-L1 | – | –
6 | CC1(C)CC[C@]2(C(=O)O)CC[C@]3(C)C(=CC[C@@H]4[C@@]5(C)CC[C@H](O)[C@@](C)(CO)[C@@H]5CC[C@]43C)[C@@H]2C1 [Compound 5] | 5360 | can block human PD-1 from binding to human PD-L1 | – | –
7 | CC1(C)CC[C@]2(C(=O)O)CC[C@]3(C)C(=CCC4[C@@]5(C)CC[C@H](O)C(C)(C)C5CC[C@]43C)C2C1 (stereo partly drawn) [Compound 10] | 2710 | can block human PD-1 from binding to human PD-L1 | about 30% | can restore the ability of depleted Jurkat T cells to secrete IL-2

Continued, in another order:

Row | Kd [2] [nM] | SMILES | Blocking of human PD-1 binding to human PD-L1 [1] | Increase of the amount of IL-2 produced by Jurkat T cells [3] | Restoration of the ability of depleted Jurkat T cells to secrete IL-2 [3]
8 | 2100 | C[C@@H]1OC(O[C@H]2C(O[C@H]3CC[C@@]4(C)C(CC[C@]5(C)C4CC=C4C6CC(C)(C)CC[C@]6(C(=O)O)CC[C@]45C)[C@]3(C)CO)OC[C@H](OC3O[C@H](CO)[C@@H](O)[C@H](O)[C@H]3O)[C@@H]2O)[C@H](O)[C@H](O)[C@H]1O (stereo partly drawn) [Compound 3] | – | – | –
9 | 1770 | C[C@H]1[C@H](C)CC[C@]2(C(=O)O)CC[C@]3(C)C(=CC[C@@H]4[C@@]5(C)C[C@@H](O)[C@@H](O)C(C)(C)[C@@H]5CC[C@]43C)[C@H]12 [Compound 13] | can block human PD-1 from binding to human PD-L1 | about 23% | can restore the ability of depleted Jurkat T cells to secrete IL-2
10 | 560 | CC1(C)CC[C@]2(C(=O)O[C@@H]3O[C@H](CO)[C@@H](O)[C@H](O)[C@H]3O)CC[C@]3(C)C(=CCC4[C@@]5(C)CCC(OC6O[C@H](C(=O)O)[C@@H](O)[C@H](O)[C@H]6O)C(C)(C)C5CC[C@]43C)[C@H]2C1 (stereo partly drawn) [Compound 4] | can block human PD-1 from binding to human PD-L1 | – | –
11 | 440 | C[C@@H]1CC[C@]2(C(=O)O)CC[C@]3(C)C(=CC[C@@H]4[C@@]5(C)CC[C@H](O[C@@H]6OC[C@H](O)[C@H](O)[C@H]6O)C(C)(C)[C@@H]5CC[C@]43C)[C@@H]2[C@]1(C)O [Compound 2] | can block human PD-1 from binding to human PD-L1 | – | –
12 | 40 | CC1(C)CC[C@]2(C(=O)O)CC[C@]3(C)C(=CC[C@@H]4[C@@]5(C)CC[C@H](O[C@@H]6O[C@H](C(=O)O)[C@@H](O)[C@H](O[C@@H]7OC[C@@H](O)[C@H](O)[C@H]7O)[C@H]6O)C(C)(C)[C@@H]5CC[C@]43C)[C@@H]2C1 [Compound 6] | can block human PD-1 from binding to human PD-L1 | about 30% | can restore the ability of depleted Jurkat T cells to secrete IL-2
13 | 1400 | C[C@H]1[C@H](C)CC[C@]2(C(=O)O)CC[C@]3(C)C(=CC[C@@H]4[C@@]5(C)C[C@@H](O)[C@H](O)C(C)(C)[C@@H]5CC[C@]43C)[C@H]12 [Compound 11] | can block human PD-1 from binding to human PD-L1 | about 12% | can restore the ability of depleted Jurkat T cells to secrete IL-2
